Experimental data taken from PMC10849753, “Antiproliferative activity of platinum(II) and copper(II) complexes containing novel biquinoxaline ligands” (Metallomics: Integrated Biometal Science, 2024).

Tests used:
LN229 cells = test: MTT cell viability assay; format: cell-based, human
Procedure: (§1) Cell culture growth conditions: Selected cancer cell lines from different origins, including human glioblastoma A172 (CRL-1620), LN229 (CRL-2611), U87 (HTB-14) cell lines, human cervix HeLa (ATCC, CCL-2), human breast MDA -231 (HTB-26), human prostate PC-3 (ATCC, CRL-1435), human lung A-549 (CCL-185), and non-cancer Chinese hamster ovary CHOK1 cell line (CCL61) (which was used as control) were purchased from American Type Culture Collection (ATCC, USA). These cultures were grown in Dulbecco's modified Eagle's medium-F12 (DMEM/F12, #D0547, Sigma-Aldrich) supplemented with 5% fetal bovine serum (#10500, Gibco) and 1% antibiotic-antimycotic (#15240, Gibco), and incubated at 37°C and 5% CO2. They were harvested and used for the following assays after reaching 70–80% confluency.
(§2) The used cell lines (A172, LN229, U87, HeLa, MDA-231, PC-3, A549, and CHO-K1) were harvested and seeded (6 × 10^3 cells/well) into the 96-well plates and incubated at 37°C and 5% CO2 for 24 h. After that, the synthesized Cu(II) and Pt(II) complexes, at a concentration range of 6.25 to 100 μM in DMEM-F12, were added to the cell monolayers and incubated at 37°C and 5% CO2 for 24, 48, and 72 h. The dose–response relationships of the synthesized complexes were determined by using an MTT colorimetric agent (3-[4,5-dimethylthiazol-2-yl]-2,5-diphenyltetrazolium bromide, #M5655, Sigma-Aldrich), which is reduced by the mitochondrial enzymes of the metabolically active live cells and converted into a purple formazan product. The MTT stock solution was later dissolved in a phosphate buffer solution (PBS, 5 mg/ml, w/v) and, then, 5 μg/ml of MTT in DMEM was added into each well and incubated at 37°C and 5% CO2 for 4 h. DMSO (#D 8418, Sigma-Aldrich), as a dissolving solution for formazan crystals, was added into each well and placed in a shaker for 2 h. The absorbance at a test wavelength of 570 nm and a reference wavelength of 630 nm was measured on a microplate reader.

MDA231 cells = test: MTT cell viability assay; format: cell-based, human
Procedure: as §1, §2

PC3 cells = test: MTT cell viability assay; format: cell-based, human
Procedure: as §1, §2

U87 cells [1] = test: MTT cell viability assay; format: cell-based, human
Procedure: as §1, §2

HeLa cells = test: MTT cell viability assay; format: cell-based, human
Procedure: as §1, §2

A549 cells = test: MTT cell viability assay; format: cell-based, human
Procedure: as §1, §2

A172 cells = test: MTT cell viability assay; format: cell-based, human
Procedure: as §1, §2

[2] = molecular target: human serum albumin (HSA) (Homo sapiens, UniProt P02768); test: HSA thermal denaturation; format: binding; settings: HSA alone 114°C; 280 nm
Procedure: The HSA thermal decomposition was followed at 280 nm upon increasing the temperature from 30°C to 130°C at a 1°C min^−1 rate from the spectral change. In order to better examine the processes involving the interaction of metal complexes and protein structure, viscometric titration was carried out in the same manner as for the nucleic acid.

EtBr-bound CT-DNA = test: Fluorescence quenching of EtBr-pretreated CT-DNA (Stern–Volmer); format: binding, calf; parameters: unit not given here; settings: 0 to 160 μM compounds
Procedure: In order to obtain the linear Stern–Volmer quenching constant (Ksv), a Thermo-Scientific Lumina Fluorescence Spectrometer was used to conduct the flourometric measurements of 10 μM ethidium bromide (EtBr)-pretreated CT-DNA solutions in the presence of 0 to 160 μM compounds.[31],[36] The excitation wavelength was adjusted at 478 nm, and emissions ware observed at about 610 nm.

prostate PC3 cells = test: ROS production, DCFDA assay; format: cell-based, human; settings: 6.25 to 100 μM, 24 h
Procedure: (§3) The reactive oxygen species (ROS) formation on the selected cell lines upon exposure to the synthesized Cu(II) and Pt(II) complexes was investigated using the oxidation-sensitive dye, 2ʹ,7ʹ-dichlorofluorescein diacetate (DCFDA, #D6883 Sigma-Aldrich). The cell lines (A172, LN229, U87, HeLa, MDA-231, PC-3, A549, and CHO-K1) were seeded (6 × 10^3 cells/well) into the 96-well plates and incubated at 37°C and 5% CO2 for 24 h. After that, the Cu(II) and Pt(II) complexes, at a concentration range of 6.25 to 100 μM, were added to the cell monolayers. Hydrogen peroxide (H2O2), at concentrations from 50 to 500 μM, was utilized as a positive control. The following day, 5 μM of DCFDA in PBS was added to the cell monolayers and, then, the plate was incubated for 30–45 min. Consequently, the fluorescence intensity was measured with 485 nm excitation and 535 nm emission wavelengths using a microplate reader. The fluorescence values of each treatment were normalized to the negative control, including only growth medium without any treatment. The assay was repeated in triplicate.

[3] = tested on: lung A549, cervix HeLa, and breast MD-A231 cells; test: ROS production, DCFDA assay; format: cell-based, human; settings: MDA-231, 6.25 to 100 μM, 24 h, vs negative control
Procedure: as §3

[4] = tested on: A172, LN229, U87, A549, Hela, PC-3, and MDA-231 cells; test: ROS production, DCFDA assay, all used cell lines; format: cell-based, human; settings: all used cell lines; 6.25 to 100 μM, 24 h
Procedure: as §3

U87 cells [5] = test: In vitro comet assay; format: cell-based, human; settings: U87, 25 and 50 μM, 24 h
Procedure: Commet assay was performed with U87 and HeLa cell lines (4 × 10^4 cells/well) to detect DNA damage in the individual eukaryotic cells, where 25 or 50 μM Cu(II) or Pt(II) complexes were added to the cells and incubated for 24 h. Subsequently, the comet assay was performed as described before.[31] The DNA damage was evaluated by calculating the DNA tail percentage using the following equation: DNA tail % = 100× tailing DNA density/cell DNA density. The assay was repeated twice, and 50 individual cells were involved for each treatment.

Chain of human serum albumin (HSA) (P02768 25-609): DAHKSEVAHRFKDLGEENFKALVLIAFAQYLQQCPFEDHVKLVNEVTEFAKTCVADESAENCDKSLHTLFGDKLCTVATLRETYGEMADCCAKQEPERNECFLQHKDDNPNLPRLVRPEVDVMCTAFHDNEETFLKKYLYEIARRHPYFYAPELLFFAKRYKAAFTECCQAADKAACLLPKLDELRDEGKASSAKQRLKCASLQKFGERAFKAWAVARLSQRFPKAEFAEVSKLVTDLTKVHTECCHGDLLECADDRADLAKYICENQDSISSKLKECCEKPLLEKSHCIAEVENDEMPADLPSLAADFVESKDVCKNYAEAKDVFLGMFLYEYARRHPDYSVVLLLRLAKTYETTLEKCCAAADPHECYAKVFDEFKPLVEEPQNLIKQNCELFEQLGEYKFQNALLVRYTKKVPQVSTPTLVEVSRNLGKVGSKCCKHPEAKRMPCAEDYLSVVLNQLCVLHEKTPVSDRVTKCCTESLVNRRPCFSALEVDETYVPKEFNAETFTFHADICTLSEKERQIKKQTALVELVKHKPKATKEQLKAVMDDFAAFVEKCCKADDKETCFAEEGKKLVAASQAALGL

| SMILES | IC50 (LN229 cells; LN229, 24 h exposure) [µM] | IC50 (LN229 cells; LN229, 48 h exposure) [µM] | IC50 (LN229 cells; LN229, 72 h exposure) [µM] | IC50 (MDA231 cells; MDA231, 24 h exposure) [µM] | IC50 (MDA231 cells; MDA231, 48 h exposure) [µM] | IC50 (MDA231 cells; MDA231, 72 h exposure) [µM] | IC50 (PC3 cells; PC3, 24 h exposure) [µM] | IC50 (PC3 cells; PC3, 48 h exposure) [µM] | IC50 (PC3 cells; PC3, 72 h exposure) [µM] | IC50 (U87 cells [1]; U87, 24 h exposure) [µM] | IC50 (U87 cells [1]; U87, 48 h exposure) [µM] | IC50 (U87 cells [1]; U87, 72 h exposure) [µM] | IC50 (HeLa cells; 24 h exposure) [µM] | IC50 (HeLa cells; 48 h exposure) [µM] | IC50 (HeLa cells; 72 h exposure) [µM] | IC50 (A549 cells; A549, 24 h exposure) [µM] | IC50 (A549 cells; A549, 48 h exposure) [µM] | IC50 (A549 cells; A549, 72 h exposure) [µM] | IC50 (A172 cells; A172, 24 h exposure) [µM] | IC50 (A172 cells; A172, 48 h exposure) [µM] | also measured |
| --- | --- | --- | --- | --- | --- | --- | --- | --- | --- | --- | --- | --- | --- | --- | --- | --- | --- | --- | --- | --- | --- |
| [Cl][Cu][Cl].c1ccc(-c2nc3ccc(-c4ccc5nc(-c6ccccn6)c(-c6ccccn6)nc5c4)cc3nc2-c2ccccn2)nc1 [Cu(tpbq)Cl2] | > 100 | > 100 | > 100 | 72.1 ± 26 | > 100 | > 100 | > 100 | > 100 | > 100 | 79.5 ± 26.4 | 5.49 ± 0.01 | 13.5 ± 6.06 | > 100 | > 100 | > 100 | > 100 | > 100 | > 100 | > 100 | > 100 | IC50 (A172 cells; A172, 72 h exposure): 92 ± 7.46 µM; melting point of HSA upon addition of the complex [2]: 110 °C; KSV (Stern–Volmer quenching constant) (EtBr-bound CT-DNA): 0.0105 |
| [Cl][Cu][Cl].c1csc(-c2nc3ccc(-c4ccc5nc(-c6cccs6)c(-c6cccs6)nc5c4)cc3nc2-c2cccs2)c1 [Cu(ttbq)Cl2] | 42 ± 14 | 36 ± 6.38 | 54 ± 3.1 | 20.6 ± 2.39 | 32.1 ± 1.05 | 41 ± 0.6 | 65.8 ± 5.35 | 75.5 ± 3.16 | 62.3 ± 4.02 | 31.2 ± 0.43 | 2.95 ± 0.97 | 5.75 ± 0.03 | 67.5 ± 2.78 | 74.22 ± 0.45 | 65 ± 2.75 | 73.5 ± 1.35 | 70.7 ± 4.09 | 66.9 ± 8.7 | 69.44 ± 0.19 | 63.9 ± 3.56 | ROS formation (prostate PC3 cells): no formation; increase of ROS production [3]: ~2 fold; IC50 (A172 cells; A172, 72 h exposure): 57.4 ± 13.7 µM; melting point of HSA upon addition of the complex [2]: 111 °C; ROS formation [4]: highest increase in the level of ROS formation; genotoxicity (DNA damage, comet) (U87 cells [5]): caused DNA damage on the U87 cells at both concentrations; KSV (Stern–Volmer quenching constant) (EtBr-bound CT-DNA): 0.0137 |
